Laboratory results published in ChEMBL document CHEMBL4425164, “5-Alkyl-2-urea-Substituted Pyridines: Identification of Efficacious Glucokinase Activators with Improved Properties” (ACS Med Chem Lett, 2016).
Converted amounts (≈) assume the structure as drawn.

System: not listed separately
Test: Half life in mouse at 1 mg/kg, iv
Assay type: ADME, organism-based
Settings: in vivo

In order of rising half-life:
1. CNC(=O)Nc1cc(Oc2cncc(OC)c2)c([C@H]2CCCOC2)cn1  18 min
2. CNC(=O)Nc1cc(Oc2cncc(C)c2)c([C@H]2C[C@@H](O)C2)cn1  72 min

System: not listed separately
Test: Clearance in rat at 0.5 mg/kg, iv
Assay type: ADME, organism-based
Settings: in vivo

In the case of `CNC(=O)Nc1cc(Oc2cncc(OC)c2)c([C@H]2CCCOC2)cn1`, the CL is reported as 28.3 mL/min/kg.

In order of rising clearance:
1. CNC(=O)Nc1cc(Oc2cncc(C)c2)c([C@H]2C[C@@H](O)C2)cn1  21.7 mL/min/kg
2. CNC(=O)Nc1cc(Oc2cncc(OC)c2)c([C@H]2COCC[C@@H]2F)cn1  26.7 mL/min/kg
3. CNC(=O)Nc1cc(Oc2cncc(OC)c2)c(C2=CCCOC2)cn1  38.3 mL/min/kg
4. CNC(=O)Nc1cc(Oc2cncc(OC)c2)c(C2=CCOCC2)cn1  41.7 mL/min/kg
5. CNC(=O)Nc1cc(Oc2cncc(OC)c2)c(C2CCOCC2)cn1  46.7 mL/min/kg

System: not listed separately
Test: Fraction unbound in mouse plasma
Assay type: ADME, cell-free
Settings: not given

In order of falling Fu:
1. CNC(=O)Nc1cc(Oc2cncc(OC)c2)c([C@H]2CCCOC2)cn1  14%
2. CNC(=O)Nc1cc(Oc2cncc(C)c2)c([C@H]2C[C@@H](O)C2)cn1  9.4%

System: not listed separately
Test: AUC in mouse at 5 mg/kg, po
Assay type: ADME, organism-based
Settings: in vivo

In order of rising AUC:
1. CNC(=O)Nc1cc(Oc2cncc(OC)c2)c([C@H]2CCCOC2)cn1  0.13 µM·h
2. CNC(=O)Nc1cc(Oc2cncc(C)c2)c([C@H]2C[C@@H](O)C2)cn1  3.69 µM·h

System: not listed separately
Test: AUC in rat at 2 mg/kg, po
Assay type: ADME, organism-based
Settings: in vivo

`CNC(=O)Nc1cc(Oc2cncc(OC)c2)c([C@H]2CCCOC2)cn1` gave an AUC of 3.64 µM·h.

Same assay, conditions: in vivo, read-out: AUC

Work on `CNC(=O)Nc1cc(Oc2cncc(C)c2)c([C@H]2C[C@@H](O)C2)cn1` yielded an AUC of 1.84 µM·h.

System: Rattus norvegicus
Test: Antidiabetic activity in Sprague-Dawley rat assessed as decrease in blood glucose AUC at 30 mg/kg, po measured at 0.5 to 5 hrs by OGTT
Assay type: functional
Settings: not given

With `CNC(=O)Nc1cc(Oc2cncc(OC)c2)c([C@H]2CCCOC2)cn1` the inhibition in vivo at 30 mg/kg was 20%.

Biological target: T1, Hexokinase-4 (Homo sapiens, UniProt P35557)
T1 sequence (P35557 whole entry): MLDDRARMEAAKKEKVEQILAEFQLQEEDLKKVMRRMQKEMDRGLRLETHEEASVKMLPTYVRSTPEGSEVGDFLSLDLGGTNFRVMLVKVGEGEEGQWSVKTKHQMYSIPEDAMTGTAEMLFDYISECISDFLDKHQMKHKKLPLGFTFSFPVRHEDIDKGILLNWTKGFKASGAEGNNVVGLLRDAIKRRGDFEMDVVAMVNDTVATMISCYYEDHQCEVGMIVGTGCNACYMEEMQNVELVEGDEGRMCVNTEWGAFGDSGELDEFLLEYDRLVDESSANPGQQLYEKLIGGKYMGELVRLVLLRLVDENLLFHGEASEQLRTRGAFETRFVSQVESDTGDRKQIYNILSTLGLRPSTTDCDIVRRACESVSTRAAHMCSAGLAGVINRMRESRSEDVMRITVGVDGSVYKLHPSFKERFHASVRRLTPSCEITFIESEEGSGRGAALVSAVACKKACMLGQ
Test: Activation of human recombinant glucokinase using 5 mM glucose as substrate in presence of NAD+ by glucose 6-phosphate dehydrogenase coupled assay
Settings: not given

In order of falling EC50:
1. CNC(=O)Nc1cc(Oc2cncc(OC)c2)c(C2=CCCOC2)cn1  400 nM
2. CNC(=O)Nc1cc(Oc2cncc(OC)c2)c([C@H]2COCC[C@@H]2F)cn1  170 nM
3. CNC(=O)Nc1cc(Oc2cncc(OC)c2)c([C@H]2CCCOC2)cn1  160 nM
4. CNC(=O)Nc1cc(Oc2cncc(OC)c2)c(C2CCOCC2)cn1  110 nM
5. CNC(=O)Nc1cc(Oc2cncc(C)c2)c([C@H]2C[C@@H](O)C2)cn1  110 nM
6. CNC(=O)Nc1cc(Oc2cncc(OC)c2)c(C2=CCOCC2)cn1  66 nM

System: Rattus norvegicus
Test: Antidiabetic activity in po dosed Sprague-Dawley rat assessed as decrease in blood glucose AUC measured at 0.5 to 5 hrs by OGTT
Assay type: functional, organism-based
Settings: not given

With `CNC(=O)Nc1cc(Oc2cncc(OC)c2)c([C@H]2CCCOC2)cn1` the inhibition was “Dose-dependent effect”.

System: Rattus norvegicus
Test: Antidiabetic activity in Sprague-Dawley rat assessed as decrease in blood glucose AUC at 3 mg/kg, po measured at 0.5 to 5 hrs by OGTT
Assay type: functional
Settings: not given

Work on `CNC(=O)Nc1cc(Oc2cncc(OC)c2)c([C@H]2CCCOC2)cn1` yielded an inhibition in vivo at 3 mg/kg of 3%.

Biological target: T2, Hexokinase-4 (Homo sapiens) (UniProt P35557)
T2 sequence (whole entry): T1 sequence (P35557 whole entry)
Test: Activation of human recombinant glucokinase assessed as Vmax ratio using 0.16 to 80 mM of glucose as substrate in presence of NAD+ by glucose 6-phosphate dehydrogenase coupled assay relative to control
Settings: not given

In order of rising Ratio:
1. CNC(=O)Nc1cc(Oc2cncc(C)c2)c([C@H]2C[C@@H](O)C2)cn1  0.97
2. CNC(=O)Nc1cc(Oc2cncc(OC)c2)c(C2=CCCOC2)cn1  0.99
3. CNC(=O)Nc1cc(Oc2cncc(OC)c2)c(C2=CCOCC2)cn1  1
4. CNC(=O)Nc1cc(Oc2cncc(OC)c2)c([C@H]2COCC[C@@H]2F)cn1  1
5. CNC(=O)Nc1cc(Oc2cncc(OC)c2)c(C2CCOCC2)cn1  1
6. CNC(=O)Nc1cc(Oc2cncc(OC)c2)c([C@H]2CCCOC2)cn1  1.1

System: not listed separately
Test: Volume of distribution at steady state in rat at 0.5 mg/kg, iv
Assay type: ADME, organism-based
Settings: in vivo, read-out: Vdss

In order of rising Vd:
1. CNC(=O)Nc1cc(Oc2cncc(OC)c2)c([C@H]2CCCOC2)cn1  0.66 L/kg
2. CNC(=O)Nc1cc(Oc2cncc(C)c2)c([C@H]2C[C@@H](O)C2)cn1  1.2 L/kg

System: not listed separately
Test: Fraction unbound in human plasma
Assay type: ADME, cell-free
Settings: not given

In order of falling Fu:
1. CNC(=O)Nc1cc(Oc2cncc(C)c2)c([C@H]2C[C@@H](O)C2)cn1  25%
2. CNC(=O)Nc1cc(Oc2cncc(OC)c2)c([C@H]2CCCOC2)cn1  16%

System: not listed separately
Test: Clearance in mouse at 1 mg/kg, iv
Assay type: ADME, organism-based
Settings: in vivo

In order of falling clearance:
1. CNC(=O)Nc1cc(Oc2cncc(OC)c2)c([C@H]2CCCOC2)cn1  157 mL/min/kg
2. CNC(=O)Nc1cc(Oc2cncc(C)c2)c([C@H]2C[C@@H](O)C2)cn1  14.5 mL/min/kg

System: Rattus norvegicus
Test: Antidiabetic activity in Sprague-Dawley rat assessed as decrease in blood glucose AUC at 10 mg/kg, po measured at 0.5 to 5 hrs by OGTT
Assay type: functional
Settings: not given

Compound `CNC(=O)Nc1cc(Oc2cncc(OC)c2)c([C@H]2CCCOC2)cn1` has an inhibition in vivo at 10 mg/kg of 13%.

System: not listed separately
Test: Solubility of the compound in PBS at pH 7.4
Assay type: physicochemical
Settings: buffer

In order of falling solubility:
1. CNC(=O)Nc1cc(Oc2cncc(C)c2)c([C@H]2C[C@@H](O)C2)cn1  332 µM (≈ 109 µg/mL)
2. CNC(=O)Nc1cc(Oc2cncc(OC)c2)c([C@H]2CCCOC2)cn1  303 µM (≈ 109 µg/mL)

System: Mus musculus
Test: Antidiabetic activity in po dosed ob/ob mouse diabetic model assessed as decrease in blood glucose AUC administered 30 mins prior to oral glucose load measured at 30 to 120 mins by OGTT
Assay type: functional, organism-based
Settings: not given

For `CNC(=O)Nc1cc(Oc2cncc(C)c2)c([C@H]2C[C@@H](O)C2)cn1`, the inhibition was “Dose-dependent effect”.

System: not listed separately
Test: Fraction unbound in rat plasma
Assay type: ADME, cell-free
Settings: not given

For `CNC(=O)Nc1cc(Oc2cncc(OC)c2)c([C@H]2CCCOC2)cn1`, the Fu was 28%.

System: Rattus norvegicus
Test: Antidiabetic activity in Sprague-Dawley rat assessed as decrease in blood glucose AUC at 100 mg/kg, po measured at 0.5 to 5 hrs by OGTT
Assay type: functional
Settings: not given

With `CNC(=O)Nc1cc(Oc2cncc(OC)c2)c([C@H]2CCCOC2)cn1` the inhibition in vivo at 100 mg/kg was 40%.

System: not listed separately
Test: Oral bioavailability in rat at 2 mg/kg
Assay type: ADME, organism-based
Settings: in vivo

For `CNC(=O)Nc1cc(Oc2cncc(OC)c2)c([C@H]2CCCOC2)cn1`, the F was 20%.

In the case of `CNC(=O)Nc1cc(Oc2cncc(C)c2)c([C@H]2C[C@@H](O)C2)cn1`, the bioavailability is reported as 39%.

System: Mus musculus
Test: Antidiabetic activity in ob/ob mouse diabetic model assessed as decrease in blood glucose AUC at 30 mg/kg, po administered 30 mins prior to oral glucose load measured at 30 to 120 mins by OGTT
Assay type: functional
Settings: not given

With `CNC(=O)Nc1cc(Oc2cncc(C)c2)c([C@H]2C[C@@H](O)C2)cn1` the inhibition in vivo at 30 mg/kg was 32%.

System: not listed separately
Test: Half life in rat at 0.5 mg/kg, iv
Assay type: ADME, organism-based
Settings: in vivo

In order of falling half-life:
1. CNC(=O)Nc1cc(Oc2cncc(C)c2)c([C@H]2C[C@@H](O)C2)cn1  180 min
2. CNC(=O)Nc1cc(Oc2cncc(OC)c2)c([C@H]2CCCOC2)cn1  18 min

System: not listed separately
Test: Intrinsic clearance in human liver microsomes
Assay type: ADME, Microsome
Settings: read-out: CLH

`CNC(=O)Nc1cc(Oc2cncc(C)c2)c([C@H]2C[C@@H](O)C2)cn1` gave a microsomal CLint of under 14 µL/min/mg.

System: not listed separately
Test: Oral bioavailability in mouse at 5 mg/kg
Assay type: ADME, organism-based
Settings: in vivo

In order of falling bioavailability:
1. CNC(=O)Nc1cc(Oc2cncc(C)c2)c([C@H]2C[C@@H](O)C2)cn1  20%
2. CNC(=O)Nc1cc(Oc2cncc(OC)c2)c([C@H]2CCCOC2)cn1  5%

System: not listed separately
Test: Drug metabolism assessed as oxidation at THP ring site by metabolic ID study
Settings: not given

For `CNC(=O)Nc1cc(Oc2cncc(OC)c2)c([C@H]2CCCOC2)cn1`, the Drug metabolism was “Metabolite detected”.

Biological target: T1, Hexokinase-4
Test: Activation of human recombinant glucokinase using 5 mM glucose as substrate in presence of NAD+ and 4% HSA by glucose 6-phosphate dehydrogenase coupled assay
Settings: not given

In order of falling EC50:
1. CNC(=O)Nc1cc(Oc2cncc(OC)c2)c([C@H]2CCCOC2)cn1  220 nM
2. CNC(=O)Nc1cc(Oc2cncc(OC)c2)c([C@H]2COCC[C@@H]2F)cn1  180 nM
3. CNC(=O)Nc1cc(Oc2cncc(OC)c2)c(C2CCOCC2)cn1  150 nM
4. CNC(=O)Nc1cc(Oc2cncc(C)c2)c([C@H]2C[C@@H](O)C2)cn1  140 nM
5. CNC(=O)Nc1cc(Oc2cncc(OC)c2)c(C2=CCCOC2)cn1  130 nM
6. CNC(=O)Nc1cc(Oc2cncc(OC)c2)c(C2=CCOCC2)cn1  98 nM

Biological target: T2, Hexokinase-4 (Homo sapiens)
Test: Activation of human recombinant glucokinase assessed as enzyme affinity for glucose […] as substrate in presence of NAD+ by glucose 6-phosphate dehydrogenase coupled assay
Settings: not given

In order of rising S0.5:
1. CNC(=O)Nc1cc(Oc2cncc(OC)c2)c(C2CCOCC2)cn1  0.62 mM
2. CNC(=O)Nc1cc(Oc2cncc(OC)c2)c([C@H]2CCCOC2)cn1  0.65 mM
3. CNC(=O)Nc1cc(Oc2cncc(C)c2)c([C@H]2C[C@@H](O)C2)cn1  0.66 mM
4. CNC(=O)Nc1cc(Oc2cncc(OC)c2)c(C2=CCCOC2)cn1  0.69 mM
5. CNC(=O)Nc1cc(Oc2cncc(OC)c2)c(C2=CCOCC2)cn1  0.82 mM
6. CNC(=O)Nc1cc(Oc2cncc(OC)c2)c([C@H]2COCC[C@@H]2F)cn1  0.85 mM

System: not listed separately
Test: Volume of distribution at steady state in mouse at 1 mg/kg, iv
Assay type: ADME, organism-based
Settings: in vivo, read-out: Vdss

In order of falling Vd:
1. CNC(=O)Nc1cc(Oc2cncc(OC)c2)c([C@H]2CCCOC2)cn1  3.3 L/kg
2. CNC(=O)Nc1cc(Oc2cncc(C)c2)c([C@H]2C[C@@H](O)C2)cn1  0.65 L/kg
